# From EP1156787B1, “OXADIAZOLE COMPOUNDS AND COMPOSITIONS FOR DELIVERING ACTIVE AGENTS” (priority 1999, dated 2000)
# Columns and labels:
# [1] = parameters: species or system Male Sprague-Dawley rats; details: rat, in vivo, po, 100 mg/kg
# Description: Oral gavage (PO) and/or intracolonic (IC) dosing solutions of delivery agent compound and human parathyroid hormone residues 1-34 (PTH) in water were prepared. A solution of the compound was made either with the sodium salt of the compound or by converting the free acid to its sodium salt. Typically, a solution of the compound was prepared in water and stirred, adding one equivalent of sodium hydroxide (1.0 N) when making the sodium salt. The final dosing solutions were prepared by mixing the compound solution with a PTH stock solution (typically having a concentration of 5 mg PTH/ml) and diluting to the desired volume (usually 3.0 ml). The final compound, PTH and volume dose amounts are listed below in Table 4.
# The typical dosing and sampling protocols were as follows. Male Sprague-Dawley rats weighing between 200-250g were fasted for 24 hours and administered ketamine (44 mg/kg) and chlorpromazine (1.5 mg/kg) 15 minutes prior to dosing. A dosing group of five rats was administered one of the dosing solutions. For oral gavage (PO), an 11cm Rusch 8 French catheter was adapted to a 1 ml syringe with a pipette tip. The syringe was filled with dosing solution by drawing the solution through the catheter, which was then wiped dry. The catheter was placed down the esophagus leaving 1 cm of tubing past the rat's incisors. Solution was administered by pressing the syringe plunger. For intracolonic (IC) dosing, a 7.5 cm Rusch catheter tube (French 8 or 6) was adapted to a syringe with an Eppendorf pipette tip. The syringe was filled with the dosing solution by drawing the solution through the catheter tube. The catheter tube was wiped dry. K-Y jelly was applied to the tip, avoiding contact with the eye of the tube, and the tube was inserted into the colon through the anus until the tube was no longer visible. The solution was injected by pressing the syringe plunger, and the tube was removed.
# Blood samples were collected serially from the tail artery, typically 0, 15, 30, 45, 60 and 90 minutes after oral administration and 0, 10, 20, 30, 60 and 90 minutes after IC administration. Serum PTH concentrations were quantified by a PTH radioimmunoassay kit (Kit # RIK 6101 from Peninsula Laboratories, Inc., San Carlos, CA). Previous studies indicated baseline values of about zero. Results from the five rats in each group were averaged for each time point. The maximum is reported below in Table 4.
# [2] = Intracolonic delivery of heparin with delivery agent compound; heparin activity by activated partial thromboplastin time (APTT); format: in vivo, Male Sprague-Dawley rats; details: rats, intracolonic (IC); compound 50 mg/kg, heparin 25 mg/kg, volume 1 ml/kg; maximum of time-point means of five rats; baseline about 20 sec
# Description: Oral gavage (PO) and/or intracolonic (IC) dosing solutions containing a delivery agent compound and heparin sodium USP in 25% aqueous propylene glycol were prepared. Either the sodium salt of the compound was used or the free acid was converted to the sodium salt with one equivalent of sodium hydroxide. Typically, delivery agent compound and heparin (about 166-182 IU/mg) were mixed by vortex as dry powders. This dry mixture was dissolved in 25% v/v aqueous propylene glycol, vortexed and placed in a sonicator (about 37 °C). The pH was adjusted to about 7 (6.5 to 8.5) with aqueous sodium hydroxide (2N). The dosing solution was sonicated to produce a clear solution. The final volume was adjusted to about 3.0 ml. The final delivery agent compound dose, heparin dose and volume dose amounts are listed below in Table 2.
# The typical dosing and sampling protocols were as follows. […]
# Citrated blood samples were collected by cardiac puncture following the administration of ketamine (88 mg/kg), typically at 0.25, 0.5, 1.0 and 1.5 hours after administration. Heparin activity was determined by utilizing the activated partial thromboplastin time (APTT) according to the method of Henry, J.B., Clinical Diagnosis and Management by Laboratory Methods, Philadelphia, PA, W.B. Saunders (1979). […]
# [3] = parameters: species or system Male Sprague-Dawley rats; details: rat, in vivo, po, 150 mg/kg
# Description: Oral dosing (PO) compositions of delivery agent compound and salmon calcitonin (sCT) in water were prepared. Typically, 450 mg of compound was added to 2.0 ml of water. Either the sodium salt of the compound was used or the free acid was converted to the sodium salt by stirring the resultant solution and adding one equivalent of sodium hydroxide (1.0 N) and diluting with water. The solution was vortexed, then heated (about 37°C) and sonicated. The pH was adjusted to about 7 (6.5 to 8.5) with sodium hydroxide or hydrochloric acid. 90 µg sCT from a stock solution was added to the solution. Water was then added to bring the total volume to about 3.0 ml (varies depending on solubility of the delivery agent compound) and vortexed. The final delivery agent compound dose, sCT dose and volume dose amounts are listed below in Table 1.
# The typical dosing and sampling protocols were as follows. Male Sprague-Dawley rats weighing between 200-250g were fasted for 24 hours and administered ketamine (44 mg/kg) and chlorpromazine (1.5 mg/kg) 15 minutes prior to dosing. A dosing group of five rats was administered one of the dosing solutions. For oral dosing, an 11 cm Rusch 8 French catheter was adapted to a 1 ml syringe with a pipette tip. The syringe was filled with dosing solution by drawing the solution through the catheter, which was then wiped dry. The catheter was placed down the esophagus leaving 1 cm of tubing past the incisors. Solution was administered by pressing the syringe plunger.
# Blood samples were collected serially from the tail artery, typically at 0, 10, 20, 30, 60 and 90 minutes after administration. Serum sCT was determined by testing with an EIA kit (Kit # EIAS-6003 from Peninsula Laboratories, Inc., San Carlos, CA). Numbers were adjusted according to baseline values obtained at 0 minutes. The limit of the assay is 80 pg/ml. The results from the five rats in each dosing group were averaged for each time point. The maximum is reported below in Table 1.
SMILES,Mean Peak Serum [PTH] (pg/ml) ± SD [1] [pg/mL],Mean Peak APTT (sec) ± SD [2] [s],AUC [1],Mean Peak Serum Set (pg/ml ± SD)(SE) [3]
O=C(O)CCCCCCc1nnc(-c2ccccc2O)o1 [Compound 2],498.55 ± 237.83,52.8 ± 31.9,–,–
O=C(O)CCCCc1nnc(-c2ccccc2O)o1 [Compound 3],57.88,–,2717.51,–
O=C(O)CCCCCCCc1nnc(-c2ccccc2O)o1 [Compound 4],330.74 ± 410.57,–,6852.12,–
O=C(O)CCCCCCc1nnc(-c2cc(Cl)ccc2O)o1 [Compound 5],22.91,–,509.20,393 ± 431 (193) pg/ml
O=C(O)CCCCCCc1nnc(-c2cc(Cl)cc(Cl)c2O)o1 [Compound 6],14.44,–,716.96,306 ± 339 (152) pg/ml
Cc1ccc(-c2nnc(CCCCCCC(=O)O)o2)c(O)c1 [Compound 7],138.9 ± 118.46,–,4790.10,–
O=C(O)CCCCCCc1nnc(-c2ccccc2)o1 [Compound 10],–,–,–,37 ± 55 pg/mL
